Target: T1, rat A2B receptors (rA2B) (Rattus norvegicus, UniProt P29276)
T1 construct: expressed in transfected cells; host or cells: HEK-293 cells, stably transfected (G418 selection); membranes
T1 sequence (P29276 1-332): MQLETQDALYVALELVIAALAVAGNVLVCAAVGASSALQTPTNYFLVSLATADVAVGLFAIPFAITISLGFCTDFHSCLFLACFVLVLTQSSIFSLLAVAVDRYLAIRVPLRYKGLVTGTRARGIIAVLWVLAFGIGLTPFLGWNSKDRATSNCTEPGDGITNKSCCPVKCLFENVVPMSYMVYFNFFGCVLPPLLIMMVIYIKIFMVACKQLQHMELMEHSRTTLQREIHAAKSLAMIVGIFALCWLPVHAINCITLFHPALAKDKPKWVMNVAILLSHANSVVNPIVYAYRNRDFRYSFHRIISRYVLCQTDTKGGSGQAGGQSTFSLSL
Assay: Radioligand competition binding (125I-ABOPX) at rat A2B receptors in HEK-293 membranes
Details: displacement of specific [125I]ABOPX binding at rat A2B receptors expressed in HEK-293 cells; read-out: RatA2B Ki
Description: The plasmid was amplified in competent JM109 cells and plasmid DNA isolated using Wizard Megaprep columns (Promega Corporation, Madison, Wis.).
Transfected HEK cells were grown under 5% CO2/[…] humidified atmosphere at a temperature of 37° C. Colonies were selected by growth of cells in 0.6 mg/mL G418. Transfected cells were maintained in DMEM supplemented with Hams F12 nutrient mixture (1/1), 10% newborn calf serum, 2 mM glutamine and containing 50 IU/mL penicillin, […], and 0.2 mg/mL Geneticin (G418, Boehringer Mannheim). Cells were cultured in 10 cm diameter round plates and subcultured when grown confluent (approximately after 72 hours).
At A2B receptors: Confluent monolayers of HEK-A2B cells were washed with PBS followed by ice cold Buffer A (10 mM HEPES, 10 mM EDTA, pH 7.4) with protease inhibitors (10 μg/mL benzamidine, 100 μM phenylmethanesulfonyl fluoride, and 2 μg/mL of each aprotinin, pepstatin and leupeptin). The cells were homogenized in a Polytron (Brinkmann) for 20 s, centrifuged at 30,000×g, and the pellets washed twice with buffer HE (10 mM HEPES, 1 mM EDTA, pH 7.4 with protease inhibitors). The final pellet was resuspended in buffer HE, supplemented with 10% sucrose and frozen in aliquots at −80° C. For binding assays membranes were thawed and diluted 5-10 fold with HE to a final protein concentration of approximately 1 mg/mL. To determine protein concentrations, membranes, and bovine serum albumin standards were dissolved in 0.2% NaOH/0.01% SDS and protein determined using fluorescamine fluorescence. Stowell, C.
After incubation, 20 minutes at room temperature, 50 μL, of 10 mg/mL Na-metabisulfite in water was added to quench the reaction. The reaction mixture was applied to a C18 HPLC column, eluting with a mixture of methanol and 5 mM phosphate, pH 6.0. After 5 min at 35% methanol, the methanol concentration was ramped to 100% over 15 min.
Radioligand binding experiments were performed in triplicate with 20-25 μg membrane protein in a total volume of 0.1 mL HE buffer supplemented with 1 U/mL adenosine deaminase and 5 mM MgCl2. The incubation time was 3 h at 21° C. Nonspecific binding was measured in the presence of 100 μM NECA. […] Membranes were filtered on Whatman GF/C filters using a Brandel cell harvester (Gaithersburg, Md.) and washed 3 times over 15-20 seconds with ice cold buffer (10 mM Tris, 1 mM MgCl2, pH 7.4). Bmax and KD values were calculated by Marquardt's nonlinear least squares interpolation for single a site binding models. Marquardt, D. M., J. Soc. Indust. Appl. […] Ki values for different compounds were derived from IC50 values as described. Linden, J., J. Cycl. Nucl. […] Data from replicate experiments are tabulated as means±SEM.

Ki	Compound
< 500 nM	CN(C(=O)c1cccnc1)c1ccc(-c2nc3c([nH]2)c(=O)n(CC2CC2)c(=O)n3CC2CC2)cn1 [Compound 69, 1,3-Dicylopropylmethyl-8-[6-[N-nicotinoylmethylamino]-3-pyridyl)xanthine]
< 5000 nM	CCCn1c(=O)c2[nH]c(-c3ccc(NC4CCCC4)nc3)nc2n(CCC)c1=O [Compound 39, 1,3-Dipropyl-8-[6-(cyclopentylamino)-3-pyridyl]xanthine]
< 500 nM	CCCn1c(=O)c2[nH]c(-c3ccc(NCC)nc3)nc2n(CCC)c1=O [Compound 3, 1,3-Dipropyl-8-(6-ethylamino-3-pyridyl)xanthine]

Compound	Ki
1,3-Diethyl-8-[6-[N-(isoxazole-5-carbonyl)methylamino]-3-pyridyl)xanthine [Compound 108]	< 500 nM
